The values that follow come from article PMC11618052, “Design, synthesis, and antiproliferative activity of new 1,2,3-triazole/quinazoline-4-one hybrids as dual EGFR/BRAF^V600E inhibitors” (RSC Advances, 2024).

What all share (assay type): cell-based
One series has as its system colon cancer (HT-29). The experiment in a line: Antiproliferative MTT assay, HT-29. Particulars: Homo sapiens, HT-29 colon cancer cells, read-out: Antiproliferative activity IC50 ± SEM, HT-29. As to the method: (§1) The median inhibitory concentration (IC50) and GI50 (mean IC50) for the four cancer cell lines were calculated. Appendix A ^† contains more details. […]
A general note: Tetrazolium assays rely on reduction of a dye to a coloured formazan, in cell work by metabolically active cells.

Series [1] concerns pancreatic cancer (Panc-1). The experiment in a line: Antiproliferative MTT assay, Panc-1. Particulars: Homo sapiens, Panc-1 pancreatic cancer cells, read-out: Antiproliferative activity IC50 ± SEM, Panc-1. As to the method: as §1
Another series has as its system breast cancer (MCF-7). The experiment in a line: Antiproliferative MTT assay, MCF-7. Particulars: Homo sapiens, MCF7, MCF-7 breast cancer cells, read-out: Antiproliferative activity IC50 ± SEM, MCF-7. How it is done: as §1
The next series concerns lung cancer (A-549). The experiment in a line: Antiproliferative MTT assay, A-549. The settings on record: Homo sapiens, A549, A-549 lung cancer cells, read-out: Antiproliferative activity IC50 ± SEM, A-549. As to the method:
as §1

Series [2] has as its system four human cancer cell lines (A-549, MCF-7, Panc-1, HT-29). The experiment in a line: Antiproliferative MTT assay, mean over the four cancer cell lines. The settings on record: for GI50: Homo sapiens, mean IC50 over A-549, MCF-7, Panc-1, HT-29. As to the method:
as §1

Series [3] in a line: Cell viability MTT assay on MCF-10A normal cells. Particulars: human, MCF-10A normal mammary gland epithelial cells, MCF-10A cells, four days of incubation. How it is done:
The viability of new compounds 8a–t was evaluated using the MCF-10A normal human mammary gland epithelial cell line. The cell viability of compounds 8a–t was examined using the MTT assay[36] after four days of incubation with MCF-10A cells. For more details, see Appendix A (ESI file). ^† […]
We evaluated the viability of new compounds 8a–t using the MCF-10A normal human mammary gland epithelial cell line. The cell viability of compounds 8a–t was examined using the MTT assay[36] after four days of incubation with MCF-10A cells.
4.2. Biological evaluation
4.2.1. Cytotoxic activity using MTT Assay and evaluation of IC 50
MTT assay was carried out to study the effect of compounds on mammary epithelial cells (MCF-10A). The medium in which cells were propagated contained Dulbecco's modified Eagle's medium (DMEM)/ Ham's F-12 medium (1:1) supplemented with epidermal growth factor (20 ng/mL), hydrocortisone (500 ng/mL), insulin (10 μg/mL), 2 mM glutamine and 10% foetal calf serum.
After every 2-3 days, the cells were passaged using trypsin ethylenediamine tetra acetic acid (EDTA). The cells were seeded at a density of 10^4 cells mL-1 in flat-bottomed culture plates containing 96 wells each. After 24 h, medium was removed from the plates and the compounds in (in 0.1% DMSO) were added (in 200 μL medium to yield a final concentration of 0.1% v/v) to the wells of plates. A single compound was designated with four wells followed by incubation of plates for 96h at 37°C. After incubation, medium was removed completely from the plates followed by addition of MTT (0.4 mg/mL in medium) to each well and subsequent incubation of plates for 3h. MTT (along with the medium) was removed and DMSO (150μL) was added to each well of the culture plates, followed by vortexing and subsequent measurement of absorbance (at 540 nm) using microplate reader. The data are shown as percentage inhibition of proliferation in comparison with controls containing 0.1% DMSO. […]

Consider `C#Cc1cccc(Nc2ncnc3cc(OCCOC)c(OCCOC)cc23)c1` [Erlotinib, reference compound], for which the IC50 with colon cancer (HT-29) came out at 30 ± 3 nM; in series [1], 30 ± 3 nM; in the series with breast cancer (MCF-7), 40 ± 3 nM; with lung cancer (A-549), 30 ± 3 nM.
Consider `CCn1c(SCc2cn(-c3ccc(OC)cc3)nn2)nc2ccccc2c1=O` [Compound 8o, 2-(((1-(4-Methoxyphenyl)-1H-1,2,3-triazol-4-yl)methyl)thio)-3-ethyl quinazolin-4(3H)-one], for which the IC50 in the series with colon cancer (HT-29) turned out to be 74 ± 6 nM; in series [1] it was 74 ± 6 nM; in the series with breast cancer (MCF-7), 63 ± 5 nM; with lung cancer (A-549) it was 69 ± 5 nM. This molecule also displayed a GI50 in series [2] of 70 nM. This molecule also registered a viability at 4 days, 50 µM in series [3] of 89%.
For the molecule `CCn1c(SCc2cn(-c3ccc(C)cc3)nn2)nc2ccccc2c1=O` [Compound 8p, 2-(((1-(p-Tolyl)-1H-1,2,3-triazol-4-yl)methyl)thio)-3-ethylquinazolin-4(3H)-one], the IC50 with colon cancer (HT-29) was determined as 85 ± 7 nM; in series [1], 84 ± 7 nM; in the series with breast cancer (MCF-7), 77 ± 7 nM; with lung cancer (A-549) it was 82 ± 7 nM. The same molecule came in with a GI50 in series [2] of 82 nM. In series [3], this molecule showed a viability at 4 days, 50 µM of 86%.
In the case of `O=c1c2ccccc2nc(SCc2cn(-c3ccccc3)nn2)n1-c1ccccc1` [Compound 8a, 2-(((1-Phenyl-1H-1,2,3-triazol-4-yl)methyl)thio)-3-phenyl quinazolin-4(3H)-one], the IC50 in the series with colon cancer (HT-29) is 64 ± 5 nM; in series [1] it was 64 ± 5 nM; with breast cancer (MCF-7), 56 ± 5 nM; with lung cancer (A-549) it was 61 ± 5 nM. In addition, in series [2], growth was halved (GI50) at 61 nM. Further, the viability at 4 days, 50 µM in series [3] was found to be 89%.
`CCn1c(SCc2cn(-c3ccccc3)nn2)nc2ccccc2c1=O` [Compound 8m, 2-(((1-Phenyl-1H-1,2,3-triazol-4-yl)methyl)thio)-3-ethyl quinazolin-4(3H)-one]: the IC50 in the series on colon cancer (HT-29) came out at 74 ± 6 nM; in series [1] it was 74 ± 6 nM; in the series with breast cancer (MCF-7), 68 ± 6 nM; in the series on lung cancer (A-549) it was 72 ± 6 nM. In addition, in series [2], it took 72 nM to inhibit growth by half (GI50). In addition, the viability at 4 days, 50 µM in series [3] was 90%.
Take `C=CCn1c(SCc2cn(-c3ccc(OC)cc3)nn2)nc2ccccc2c1=O` [Compound 8s, 2-(((1-(4-Methoxyphenyl)-1H-1,2,3-triazol-4-yl)methyl)thio)-3-allyl quinazolin-4(3H)-one]: the concentration for half-maximal inhibition (IC50) is 59 ± 5 nM with colon cancer (HT-29), 59 ± 5 nM in series [1], 53 ± 4 nM with breast cancer (MCF-7) and 57 ± 5 nM in the series with lung cancer (A-549). The molecule further showed a GI50 in series [2] of 57 nM. This molecule also returned a viability at 4 days, 50 µM in series [3] of 91%.
In the case of `COc1ccc(-n2cc(CSc3nc4ccccc4c(=O)n3-c3cccc(C)c3)nn2)cc1` [Compound 8k, 2-(((1-(4-Methoxyphenyl)-1H-1,2,3-triazol-4-yl)methyl)thio)-3-(m-tolyl)quinazolin-4(3H)-one], the IC50 in the series with colon cancer (HT-29) stood at 45 ± 3 nM; in series [1], 46 ± 3 nM; with breast cancer (MCF-7), 39 ± 3 nM; in the series on lung cancer (A-549) it was 42 ± 3 nM. In addition, growth in series [2] was halved (GI50) at 43 nM. The molecule also showed a viability at 4 days, 50 µM in series [3] of 85%.
`C=CCn1c(SCc2cn(-c3ccc(Cl)cc3)nn2)nc2ccccc2c1=O` [Compound 8r, 2-(((1-(4-Chlorophenyl)-1H-1,2,3-triazol-4-yl)methyl)thio)-3-allyl quinazolin-4(3H)-one]: the IC50 in the series on colon cancer (HT-29) came to 84 ± 7 nM; in series [1] it was 81 ± 7 nM; in the series with breast cancer (MCF-7), 75 ± 6 nM; in the series with lung cancer (A-549), 79 ± 6 nM. The molecule also had a GI50 in series [2] of 80 nM. Moreover, the viability at 4 days, 50 µM in series [3] came out at 90%.
For the molecule `O=c1c2ccccc2nc(SCc2cn(-c3ccc(Cl)cc3)nn2)n1-c1ccccc1` [Compound 8b, 2-(((1-(4-Chlorophenyl)-1H-1,2,3-triazol-4-yl)methyl)thio)-3-phenyl quinazolin-4(3H)-one], the IC50 in the series on colon cancer (HT-29) came to 44 ± 3 nM; in series [1], 42 ± 3 nM; in the series with breast cancer (MCF-7), 36 ± 3 nM; in the series with lung cancer (A-549), 40 ± 3 nM. This molecule also displayed a GI50 in series [2] of 41 nM. Further, the viability at 4 days, 50 µM in series [3] amounted to 90%.
`C=CCn1c(SCc2cn(-c3ccc(C)cc3)nn2)nc2ccccc2c1=O` [Compound 8t, 2-(((1-(p-Tolyl)-1H-1,2,3-triazol-4-yl)methyl)thio)-3-allyl quinazolin-4(3H)-one]: the IC50 stood at 87 ± 7 nM with colon cancer (HT-29), 87 ± 7 nM in series [1], 80 ± 7 nM with breast cancer (MCF-7) and 84 ± 7 nM in the series with lung cancer (A-549). In series [2], this molecule yielded a GI50 of 85 nM. Further, the viability at 4 days, 50 µM in series [3] was found to be 90%.
Regarding `Cc1ccc(-n2c(SCc3cn(-c4ccccc4)nn3)nc3ccccc3c2=O)cc1` [Compound 8e, 2-(((1-Phenyl-1H-1,2,3-triazol-4-yl)methyl)thio)-3-(p-tolyl)quinazolin-4(3H)-one], the 50% inhibitory concentration (IC50) with colon cancer (HT-29) worked out at 92 ± 8 nM; in series [1], 92 ± 8 nM; in the series on breast cancer (MCF-7), 85 ± 8 nM; in the series with lung cancer (A-549), 88 ± 8 nM. Moreover, the “Fold less potent than compound 8g (GI50)” value in series [2] (GI50 versus methoxy derivative 8g) was 4. For the same molecule, the GI50 in series [2] is 89 nM. In series [3], this molecule showed a viability at 4 days, 50 µM of 90%.
In the case of `C=CCn1c(SCc2cn(-c3ccccc3)nn2)nc2ccccc2c1=O` [Compound 8q, 2-(((1-Phenyl-1H-1,2,3-triazol-4-yl)methyl)thio)-3-allyl quinazolin-4(3H)-one], the IC50 in the series with colon cancer (HT-29) amounted to 96 ± 8 nM; in series [1], 96 ± 8 nM; with breast cancer (MCF-7), 89 ± 8 nM; with lung cancer (A-549) it was 93 ± 8 nM. In series [2], the GI50 is 94 nM. This molecule showed a viability at 4 days, 50 µM in series [3] of 87%.
For the molecule `Cc1cccc(-n2c(SCc3cn(-c4ccccc4)nn3)nc3ccccc3c2=O)c1` [Compound 8i, 2-(((1-Phenyl-1H-1,2,3-triazol-4-yl)methyl)thio)-3-(m-tolyl)quinazolin-4(3H)-one], the IC50 with colon cancer (HT-29) stood at 68 ± 6 nM; in series [1], 68 ± 6 nM; with breast cancer (MCF-7), 59 ± 5 nM; in the series with lung cancer (A-549), 65 ± 5 nM. The same molecule displayed a GI50 in series [2] of 65 nM. In series [3], the viability at 4 days, 50 µM amounted to 90%.
For `CCn1c(SCc2cn(-c3ccc(Cl)cc3)nn2)nc2ccccc2c1=O` [Compound 8n, 2-(((1-(4-Chlorophenyl)-1H-1,2,3-triazol-4-yl)methyl)thio)-3-ethyl quinazolin-4(3H)-one], the IC50 came to 79 ± 6 nM in the series on colon cancer (HT-29), 78 ± 6 nM in series [1], 71 ± 6 nM in the series on breast cancer (MCF-7) and 75 ± 6 nM with lung cancer (A-549). This molecule also gave a GI50 in series [2] of 76 nM. The molecule also registered a viability at 4 days, 50 µM in series [3] of 92%.
`COc1ccc(-n2cc(CSc3nc4ccccc4c(=O)n3-c3ccccc3)nn2)cc1` [Compound 8c, 2-(((1-(4-Methoxyphenyl)-1H-1,2,3-triazol-4-yl)methyl)thio)-3-phenylquinazolin-4(3H)-one]: the IC50 was determined as 49 ± 3 nM in the series on colon cancer (HT-29), 49 ± 3 nM in series [1], 42 ± 3 nM in the series with breast cancer (MCF-7) and 47 ± 3 nM in the series with lung cancer (A-549). Further, it took 47 nM to inhibit growth in series [2] by half (GI50). This molecule yielded a viability at 4 days, 50 µM in series [3] of 86%.
Consider `Cc1ccc(-n2cc(CSc3nc4ccccc4c(=O)n3-c3ccccc3)nn2)cc1` [Compound 8d, 2-(((1-(p-Tolyl)-1H-1,2,3-triazol-4-yl)methyl)thio)-3-phenylquinazolin-4(3H)-one], for which the 50% inhibitory concentration (IC50) in the series with colon cancer (HT-29) is 56 ± 4 nM; in series [1], 56 ± 4 nM; in the series with breast cancer (MCF-7) it was 48 ± 4 nM; in the series with lung cancer (A-549), 53 ± 4 nM. The molecule further gave a GI50 in series [2] of 53 nM. The viability at 4 days, 50 µM in series [3] is 89%.

The term IC50 denotes the midpoint of a concentration-inhibition curve. One may read the GI50 as the concentration at which growth is held to half of that of the control. Lower therefore signals more potent growth inhibition. One may read the viability as a per cent measure of how many cells are alive, often set against a control. A high value points to better survival.
